Holding throughout (format): biochemical
For one experiment, the target named is c-Met (Homo sapiens, UniProt P08581). Briefly: Ki determination for the inhibition of c-Met (coupled enzyme system). The conditions noted are these: 200 μM ATP, 10 μM polyGluTyr, 80 nM c-Met, 30° C. Here is the method:
Compounds were screened for their ability to inhibit c-Met kinase activity using a standard coupled enzyme system (Fox et al., Protein Sci. 1998, 7, 2249). Reactions were carried out in a solution containing 100 mM HEPES (pH 7.5), 10 mM MgCl2, 25 mM NaCl, 300 μM NADH, 1 mM DTT, and 1.5% DMSO. Final substrate concentrations in the assay were 200 μM ATP (Sigma Chemicals, St Louis, Mo.) and 10 μM polyGluTyr (Sigma Chemical Company, St. Louis). Reactions were carried out at 30° C. and 80 nM c-Met. Final concentrations of the components of the coupled enzyme system were 2.5 mM phosphoenolpyruvate, 300 μM NADH, 30 μg/ml pyruvate kinase and 10 μg/ml lactate dehydrogenase.
An assay stock buffer solution was prepared containing all of the reagents listed above with the exception of ATP and a test compound of the present invention. The assay stock buffer solution (175 μl) was incubated in a 96 well plate with 5 μl of the test compound of the present invention at final concentrations spanning 0.006 μM to 12.5 μM at 30° C. for 10 minutes. […] Rates of reaction were obtained using a Molecular Devices Spectramax plate reader (Sunnyvale, Calif.) over 10 minutes at 30° C. The Ki values were determined from the rate data as a function of inhibitor concentration.

In the next experiment the target is KDR (Homo sapiens, UniProt P35968). In words: KDR enzyme assay (coupled enzyme assay). To be noted: 300 μM ATP, 10 μM poly E4Y, 30 nM KDR, 37° C.; read-out: Ki value, inhibition of KDR. The method, then: Compounds were screened for their ability to inhibit KDR using a standard coupled enzyme assay (Fox et al., Protein Sci., (1998) 7, 2249). Assays were carried out in a mixture of 200 mM HEPES 7.5, 10 mM MgCl2, 25 mM NaCl, 1 mM DTT and 1.5% DMSO. Final substrate concentrations in the assay were 300 μM ATP (Sigma Chemicals) and 10 μM poly E4Y (Sigma). Assays were carried out at 37° C. and 30 nM KDR. Final concentrations of the components of the coupled enzyme system were 2.5 mM phosphoenolpyruvate, 200 μM NADH, 30 μg/ML pyruvate kinase and 10 μg/ml lactate dehydrogenase.
An assay stock buffer solution was prepared containing all of the reagents listed above, with the exception of ATP and the test compound of interest. 177 μl of the stock solution was placed in a 96 well plate followed by addition of 3 μl of 2 mM DMSO stock containing the test compound (final compound concentration 30 μM). The plate was preincubated for about 10 minutes at 37° C. and the reaction initiated by addition of 20 μl of ATP (final concentration 300 μM). Rates of reaction were obtained using a Molecular Devices plate reader (Sunnyvale, Calif.) over a 5 minute read time at 37° C.

In a further experiment the target is T1, JAK3 (Homo sapiens, UniProt P52333).
T1 sequence (P52333 1-1124): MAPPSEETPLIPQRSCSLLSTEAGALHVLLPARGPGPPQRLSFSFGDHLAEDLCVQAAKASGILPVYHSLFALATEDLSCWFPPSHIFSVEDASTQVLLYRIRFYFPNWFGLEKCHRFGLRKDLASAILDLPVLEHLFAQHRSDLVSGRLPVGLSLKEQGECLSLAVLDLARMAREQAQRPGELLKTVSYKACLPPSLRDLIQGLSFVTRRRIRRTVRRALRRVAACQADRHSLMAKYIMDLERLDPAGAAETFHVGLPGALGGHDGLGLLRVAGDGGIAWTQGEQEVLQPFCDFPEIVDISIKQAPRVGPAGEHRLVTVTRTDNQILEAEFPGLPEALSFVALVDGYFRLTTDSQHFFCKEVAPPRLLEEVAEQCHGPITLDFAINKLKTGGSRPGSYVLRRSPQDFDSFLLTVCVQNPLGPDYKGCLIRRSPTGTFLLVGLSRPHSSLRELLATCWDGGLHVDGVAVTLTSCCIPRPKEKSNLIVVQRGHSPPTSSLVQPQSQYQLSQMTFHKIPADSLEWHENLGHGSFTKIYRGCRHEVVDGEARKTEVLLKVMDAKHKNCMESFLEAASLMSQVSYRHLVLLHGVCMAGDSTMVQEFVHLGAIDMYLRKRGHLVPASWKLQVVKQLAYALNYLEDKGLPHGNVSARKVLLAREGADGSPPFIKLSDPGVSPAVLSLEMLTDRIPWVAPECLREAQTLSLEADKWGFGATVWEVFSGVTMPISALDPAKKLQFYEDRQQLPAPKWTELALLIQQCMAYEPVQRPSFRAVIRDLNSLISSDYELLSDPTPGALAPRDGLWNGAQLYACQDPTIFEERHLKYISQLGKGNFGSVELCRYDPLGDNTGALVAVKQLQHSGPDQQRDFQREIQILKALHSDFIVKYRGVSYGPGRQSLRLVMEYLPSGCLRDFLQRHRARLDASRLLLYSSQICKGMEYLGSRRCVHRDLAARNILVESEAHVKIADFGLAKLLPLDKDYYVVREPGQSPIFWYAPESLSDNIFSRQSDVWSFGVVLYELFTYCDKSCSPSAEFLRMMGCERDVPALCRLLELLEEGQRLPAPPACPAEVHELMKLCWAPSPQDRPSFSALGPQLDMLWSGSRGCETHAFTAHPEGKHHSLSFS
In words: JAK3 inhibition assay (33P incorporation). To be noted: 5 uM ATP, 1 uM poly(Glu)4Tyr, 1 nM JAK3, 25C. The method, then:
• kinase buffer: (100 mM HEPES pH 7.4; 1 mM DTT; 10 mM MgCl2; 25 mM NaCl; and 0.01% BSA) • 1 nM JAK3 (enzyme) • 1 uM poly(Glu)4Tyr (substrate) • 5 uM ATP (substrate, 200 uCi/umole ATP) Procedure
To each well of a 96 well polycarbonate plate is added 1.5 ul of a candidate JAK3 inhibitor along with 50 ul of kinase buffer containing 2 uM poly(Glu)4Tyr and 10 uM ATP. This is then mixed and 50 ul of kinase buffer containing 2 nM JAK3 enzyme is added to start the reaction. After 20 minutes at room temperature (25C), the reaction is stopped with 50 ul of 20% trichloroacetic acid (TCA) that also contains 0.4 mM ATP. The entire content of each well is then transferred to a 96 well glass fiber filter plate using a TomTek Cell Harvester. After washing, 60 ul of scintillation fluid is added and 33P incorporation detected on a Perkin Elmer TopCount.

Drawing on patent US7169800B2, “Imidazole compositions useful as inhibitors of protein kinases” (Vertex Pharmaceuticals Incorporated, priority 2003, dated 2007), this text covers Ki for one compound.

Some results are limits rather than exact numbers.

Sequence of KDR (P35968 20-1356): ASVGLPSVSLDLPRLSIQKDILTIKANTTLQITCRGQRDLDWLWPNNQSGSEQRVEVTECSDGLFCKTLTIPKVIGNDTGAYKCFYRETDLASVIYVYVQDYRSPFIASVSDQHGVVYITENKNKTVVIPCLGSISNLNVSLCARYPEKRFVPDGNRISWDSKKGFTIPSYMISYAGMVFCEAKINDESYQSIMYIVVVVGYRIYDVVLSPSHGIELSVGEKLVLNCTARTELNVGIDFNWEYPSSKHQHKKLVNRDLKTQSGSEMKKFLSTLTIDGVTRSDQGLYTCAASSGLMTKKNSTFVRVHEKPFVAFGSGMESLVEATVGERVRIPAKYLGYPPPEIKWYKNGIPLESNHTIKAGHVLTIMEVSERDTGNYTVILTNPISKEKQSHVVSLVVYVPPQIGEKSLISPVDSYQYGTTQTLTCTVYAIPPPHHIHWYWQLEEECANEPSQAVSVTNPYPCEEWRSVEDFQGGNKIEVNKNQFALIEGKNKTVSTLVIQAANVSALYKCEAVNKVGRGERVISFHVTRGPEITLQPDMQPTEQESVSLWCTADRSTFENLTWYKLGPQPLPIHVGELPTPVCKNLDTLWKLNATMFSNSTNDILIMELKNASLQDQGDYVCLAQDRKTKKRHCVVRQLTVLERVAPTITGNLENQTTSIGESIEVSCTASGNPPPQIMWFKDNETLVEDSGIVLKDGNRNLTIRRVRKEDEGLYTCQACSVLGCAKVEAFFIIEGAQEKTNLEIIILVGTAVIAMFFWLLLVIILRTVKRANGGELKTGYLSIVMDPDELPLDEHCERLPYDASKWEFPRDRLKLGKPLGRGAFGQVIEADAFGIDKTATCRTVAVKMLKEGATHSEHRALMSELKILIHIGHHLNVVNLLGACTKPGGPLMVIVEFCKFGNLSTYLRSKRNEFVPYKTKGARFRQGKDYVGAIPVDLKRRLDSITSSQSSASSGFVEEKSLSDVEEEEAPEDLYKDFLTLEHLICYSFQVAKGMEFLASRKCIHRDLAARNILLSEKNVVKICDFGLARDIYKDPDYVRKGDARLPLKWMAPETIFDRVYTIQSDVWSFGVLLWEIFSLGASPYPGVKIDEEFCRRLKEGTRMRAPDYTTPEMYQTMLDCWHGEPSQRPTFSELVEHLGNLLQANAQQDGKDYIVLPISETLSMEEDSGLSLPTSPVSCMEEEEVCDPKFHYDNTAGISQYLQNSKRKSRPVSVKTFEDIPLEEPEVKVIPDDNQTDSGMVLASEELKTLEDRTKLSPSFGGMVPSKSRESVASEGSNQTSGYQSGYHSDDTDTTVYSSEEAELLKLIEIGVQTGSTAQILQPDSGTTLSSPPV
Sequence of c-Met (P08581 25-1390): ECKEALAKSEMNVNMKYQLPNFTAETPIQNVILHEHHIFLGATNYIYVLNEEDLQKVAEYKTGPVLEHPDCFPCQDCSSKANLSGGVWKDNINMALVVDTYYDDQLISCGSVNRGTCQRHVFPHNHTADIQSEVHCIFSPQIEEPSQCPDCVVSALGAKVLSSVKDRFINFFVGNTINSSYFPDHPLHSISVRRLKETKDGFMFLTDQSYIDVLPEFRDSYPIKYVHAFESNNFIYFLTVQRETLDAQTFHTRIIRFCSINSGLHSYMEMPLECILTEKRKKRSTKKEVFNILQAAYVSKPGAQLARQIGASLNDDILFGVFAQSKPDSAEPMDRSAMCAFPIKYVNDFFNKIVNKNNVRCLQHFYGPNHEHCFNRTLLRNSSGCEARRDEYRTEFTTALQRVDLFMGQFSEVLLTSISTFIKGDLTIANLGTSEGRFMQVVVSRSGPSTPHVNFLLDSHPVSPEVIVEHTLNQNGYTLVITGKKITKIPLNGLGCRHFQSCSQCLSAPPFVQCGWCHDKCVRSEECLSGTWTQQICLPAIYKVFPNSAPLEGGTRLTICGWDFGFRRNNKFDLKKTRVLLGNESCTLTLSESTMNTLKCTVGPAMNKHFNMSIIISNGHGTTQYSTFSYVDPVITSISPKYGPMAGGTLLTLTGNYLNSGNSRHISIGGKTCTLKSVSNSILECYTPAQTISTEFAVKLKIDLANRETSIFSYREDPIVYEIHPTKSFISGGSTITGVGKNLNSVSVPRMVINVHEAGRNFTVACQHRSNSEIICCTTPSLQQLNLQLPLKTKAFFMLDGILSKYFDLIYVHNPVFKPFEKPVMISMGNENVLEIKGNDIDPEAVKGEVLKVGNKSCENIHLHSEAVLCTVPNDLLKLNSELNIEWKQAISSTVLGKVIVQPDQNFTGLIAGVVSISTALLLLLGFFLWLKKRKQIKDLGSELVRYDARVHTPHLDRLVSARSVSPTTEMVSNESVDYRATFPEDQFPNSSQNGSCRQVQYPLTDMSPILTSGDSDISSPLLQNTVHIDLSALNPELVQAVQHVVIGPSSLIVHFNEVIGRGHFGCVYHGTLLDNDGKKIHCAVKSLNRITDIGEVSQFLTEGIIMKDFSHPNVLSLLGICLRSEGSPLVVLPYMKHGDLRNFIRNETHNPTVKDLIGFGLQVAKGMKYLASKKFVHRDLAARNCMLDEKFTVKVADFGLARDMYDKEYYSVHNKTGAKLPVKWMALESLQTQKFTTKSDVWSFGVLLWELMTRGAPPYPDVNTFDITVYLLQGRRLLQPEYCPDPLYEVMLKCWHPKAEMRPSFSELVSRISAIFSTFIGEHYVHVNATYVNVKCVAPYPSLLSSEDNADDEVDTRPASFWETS

What is called Ki is a dissociation constant, usually derived from enzyme kinetics or from competition with a known ligand. Turning to `O=C(c1nc(-c2oncc2-c2cccc(F)c2F)c[nH]1)N1CC=CC1` [Compound I-38, {4-[4-(2,3-Difluoro-phenyl)-isoxazol-5-yl]-1H-imidazol-2-yl}-(2,5-dihydro-pyrrol-1-yl)-methanone], the Ki on c-Met is below 1000 nM; on KDR it was below 5000 nM; at JAK3 it was below 1000 nM.
